Source: patent publication US20230293551A1, “USE OF OXYGENATED CHOLESTEROL SULFATES FOR TREATING AUTOIMMUNE CONDITIONS” (Durect Corporation, priority 2020, published 2023)

Tests used:
[1] = Metabolite profiling of plasma, urine, feces after intravenous dose; assay type: in vivo, rats
Protocol: (§1) Nine male Sprague Dawley rats (Group 1) were designated for the pharmacokinetic phase, 3 male Sprague Dawley rats (Group 2) for the excretion mass balance phase, and 7 male Sprague Dawley rats (Group 3) and 9 male Long Evans rats (Group 4) for the tissue distribution phase. All animals received a single intravenous dose of [^14C]-25HC3S at 10 mg/kg and a target radioactivity of 225 µCi/kg. Blood samples were collected from all Group 1 animals at approximately 0.083, 0.25, 0.5, 1, 2, 4, 8, 12, 24, 48, and 72 hours post-dose. Urine and feces were collected from all Group 2 animals periodically through 168 hours post-dose. […] Following blood collection, animals were euthanized by CO2 inhalation and carcasses frozen in a dry ice/hexane bath for processing by quantitative whole body autoradiography. Whole blood, plasma, urine, feces, cage rinse, and cage wash were analyzed for total radioactivity by liquid scintillation counting.

DNMT1/3a/3b = assay: Enzyme kinetic study, overall statements on DNMT1/3a/3b activities; assay type: biochemical
Protocol: (§3) For the DNMT1 activity assay, the substrate solution, 0.001 mg/ml Poly(dI-dC):Poly(dI-dC) in 50 mM Tris-HCl, pH 7.5, 50 mM NaCl, 5 mM EDTA, 5 mM DTT, 1 mM PMSF, 5% glycerol, 0.01% Brij35, 1% DMSO was used. For the DNMT3a/3b activity assay, 0.0075 mg/ml Lambda DNA in 50 mM Tris-HCl, pH 7.5, 50 mM NaCl, 5 mM EDTA, 5 mM DTT, 1 mM PMSF, 5% glycerol, 1% DMSO, was used. The indicated DNMT1, DNMT3a, or DNMT3b was added to the appropriate substrate solution and gently mixed. […] The mixtures were first incubated for 15 min, then ^3H-SAM was added to the reaction mixture to initiate the reaction, and the mixture was incubated for 60 min at 30° C. Following incubation, the reaction mixture was finally transferred to filter-paper for detection of radioactivity counts.

[2] = Metabolite profiling of plasma and feces after oral dose; assay type: in vivo, rats; details: oral 75 mg/kg
Source text: Radiolabeled components in plasma and feces extracts were profiled and identified using radio-high performance liquid chromatography (HPLC) and high performance liquid chromatography/mass spectrometry (HPLC/MS) methods.

DNMT1 = DNMT1 (Homo sapiens, UniProt P26358); assay: DNMT1 activity assay (3H-SAM, filter-paper radioactivity); assay type: biochemical
Sequence of DNMT1 (P26358 whole entry, species assumed): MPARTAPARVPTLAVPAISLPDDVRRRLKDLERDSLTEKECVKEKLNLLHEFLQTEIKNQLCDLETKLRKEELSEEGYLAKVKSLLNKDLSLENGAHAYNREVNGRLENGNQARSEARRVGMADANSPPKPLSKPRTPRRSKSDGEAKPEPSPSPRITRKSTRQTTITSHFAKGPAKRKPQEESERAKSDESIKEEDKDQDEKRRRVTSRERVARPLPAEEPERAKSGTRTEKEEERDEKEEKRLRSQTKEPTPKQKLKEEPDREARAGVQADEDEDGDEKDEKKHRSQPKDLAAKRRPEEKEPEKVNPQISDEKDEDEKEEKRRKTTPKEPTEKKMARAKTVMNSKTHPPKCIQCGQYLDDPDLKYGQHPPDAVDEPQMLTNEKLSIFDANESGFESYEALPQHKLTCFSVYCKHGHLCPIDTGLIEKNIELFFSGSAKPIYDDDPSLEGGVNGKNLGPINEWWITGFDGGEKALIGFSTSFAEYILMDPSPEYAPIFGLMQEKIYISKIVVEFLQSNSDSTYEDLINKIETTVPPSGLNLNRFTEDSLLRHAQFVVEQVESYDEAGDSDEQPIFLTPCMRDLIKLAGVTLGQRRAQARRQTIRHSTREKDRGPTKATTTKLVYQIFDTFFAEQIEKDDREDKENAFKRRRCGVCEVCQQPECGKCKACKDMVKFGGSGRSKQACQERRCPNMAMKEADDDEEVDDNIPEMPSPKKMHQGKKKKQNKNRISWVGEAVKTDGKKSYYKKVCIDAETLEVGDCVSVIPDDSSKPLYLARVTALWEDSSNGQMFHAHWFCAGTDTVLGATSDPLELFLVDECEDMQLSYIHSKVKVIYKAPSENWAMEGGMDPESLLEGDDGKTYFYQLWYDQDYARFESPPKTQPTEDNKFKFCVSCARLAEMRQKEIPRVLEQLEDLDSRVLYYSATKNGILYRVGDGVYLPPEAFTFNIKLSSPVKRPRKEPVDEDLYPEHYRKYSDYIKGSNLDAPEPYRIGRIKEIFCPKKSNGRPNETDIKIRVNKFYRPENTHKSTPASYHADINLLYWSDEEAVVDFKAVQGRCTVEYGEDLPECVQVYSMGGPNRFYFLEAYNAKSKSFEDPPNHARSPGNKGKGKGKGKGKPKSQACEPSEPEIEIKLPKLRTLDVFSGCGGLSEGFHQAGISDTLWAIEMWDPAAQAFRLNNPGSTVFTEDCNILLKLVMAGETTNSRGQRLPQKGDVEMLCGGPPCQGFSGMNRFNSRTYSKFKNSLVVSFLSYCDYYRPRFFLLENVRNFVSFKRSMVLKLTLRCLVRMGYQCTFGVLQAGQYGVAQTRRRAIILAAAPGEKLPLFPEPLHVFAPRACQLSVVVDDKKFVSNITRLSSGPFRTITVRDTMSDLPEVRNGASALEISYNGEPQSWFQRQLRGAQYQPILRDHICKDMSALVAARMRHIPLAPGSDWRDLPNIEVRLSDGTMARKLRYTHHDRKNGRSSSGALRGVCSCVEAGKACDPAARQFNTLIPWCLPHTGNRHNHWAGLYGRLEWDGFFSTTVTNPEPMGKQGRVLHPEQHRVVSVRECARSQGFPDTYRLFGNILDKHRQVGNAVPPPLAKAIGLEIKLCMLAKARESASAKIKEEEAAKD
Protocol: as §3

[3] = Tissue distribution after intravenous dose in pigmented rats; assay type: in vivo, male Long Evans rats; details: intravenous 10 mg/kg, first 168 hours post-dose
Source text: (§2) The objectives of this study were to determine the plasma pharmacokinetics of [4-^14C]-25HC3S-derived radioactivity in male Sprague Dawley rats, determine the routes of elimination and excretion mass balance of [4-^14C]-25HC3S-derived radioactivity in male Sprague Dawley rats, determine the tissue distribution and tissue pharmacokinetics of [4-^14C]-25HC3S-derived radioactivity using quantitative whole body autoradiography methods in male Sprague Dawley and Long Evans rats following a single intravenous (bolus) dose, and to provide plasma, urine, and fecal homogenate samples for metabolite profiling of [4-^14C]-25HC3S-derived radioactivity.
as §1, with “µCi/kg.” for “µCi/kg. Blood samples were collected from all Group 1 animals at approximately 0.083, 0.25, 0.5, 1, 2, 4, 8, 12, 24, 48, and 72 hours post-dose. Urine and feces were collected from all Group 2 animals periodically through 168 hours post-dose.”

[4] = Plasma pharmacokinetics of radioactivity after single intravenous dose; assay type: in vivo, male Sprague Dawley rats; details: single intravenous (bolus) dose 10 mg/kg
Source text: as §2
as §1, with “µCi/kg.” for “µCi/kg. Blood samples were collected from all Group 1 animals at approximately 0.083, 0.25, 0.5, 1, 2, 4, 8, 12, 24, 48, and 72 hours post-dose. Urine and feces were collected from all Group 2 animals periodically through 168 hours post-dose.”

[5] = Excretion mass balance after single intravenous dose; assay type: in vivo, male Sprague Dawley rats; details: intravenous 10 mg/kg, over 168 hours
Source text: as §2
as §1, with “µCi/kg.” for “µCi/kg. Blood samples were collected from all Group 1 animals at approximately 0.083, 0.25, 0.5, 1, 2, 4, 8, 12, 24, 48, and 72 hours post-dose. Urine and feces were collected from all Group 2 animals periodically through 168 hours post-dose.”

[6] = Tissue distribution by quantitative whole body autoradiography after intravenous dose; assay type: in vivo, male Sprague Dawley rats; details: intravenous 10 mg/kg
Source text: as §2, §1

[7] = Plasma pharmacokinetics of radioactivity after single oral (gavage) dose; assay type: in vivo, rats; details: single oral (gavage) dose 75 mg/kg
Protocol: The terminal elimination phase T½ was 27.3 hours.

[8] = Tissue distribution by quantitative whole body autoradiography after oral dose; assay type: in vivo, male Sprague Dawley rats; details: oral 75 mg/kg

Molecule: C[C@H](CCCC(C)(C)O)[C@H]1CC[C@H]2[C@@H]3CC=C4C[C@@H](OS(=O)(=O)O)CC[C@]4(C)[C@H]3CC[C@]12C [25HC3S, 25-hydroxycholesterol-3-sulfate]
- % of dose in feces ([1]; pools 0 to 48 hours postdose): 2 % of dose
- share of the exposure (AUC) to 25HC3S related radioactivity in plasma ([1]; up to 1 hour postdose): approximately 54%
- effect on enzymatic activities (DNMTs) (DNMT1/3a/3b): potent inhibitors of DNMTs
- IC50 (DNMT1/3a/3b; DNMT-1, 3a, 3b, read-out: IC50s (kinetic study)): 1 to 10 µM

Molecule: C[C@H](CCCC(C)(C)O)[C@H]1CC[C@H]2[C@@H]3CC=C4C[C@@H](O)CC[C@]4(C)[C@H]3CC[C@]12C [25HC, 25-Hydroxycholesterol]
- relative observed intensity (ROI) in plasma ([2]; 2 hour postdose plasma): 37%
- % of total dose in feces ([2]; pools 0 to 168 hours postdose): 1.9 % of total dose
- detection in plasma, urine, or feces samples [1]: Neither desmosterol sulfate nor 25-hydroxycholesterol was detected
- activates DNMT-1 activity (DNMT1): 8 fold

Molecule: CC(CO)CCC[C@@H](C)[C@H]1CC[C@H]2[C@@H]3CC=C4C[C@@H](OS(=O)(=O)O)CC[C@]4(C)[C@H]3CC[C@]12C (stereo partly drawn) [27HC3S, 27-hydroxycholesterol-3-sulfate]
- effect on enzymatic activities (DNMTs) (DNMT1/3a/3b): potent inhibitors of DNMTs

Molecule: C[C@@H](CO)CCC[C@@H](C)[C@H]1CC[C@H]2[C@@H]3CC=C4C[C@@H](O)CC[C@]4(C)[C@H]3CC[C@]12C [27HC, 27-Hydroxycholesterol, reference compound]
- effect on enzymatic activities (DNMTs) (DNMT1/3a/3b): had no effect on other enzymes

Molecule: CC(C)CCC[C@@H](C)[C@H]1CC[C@H]2[C@@H]3CC=C4C[C@@H](OS(=O)(=O)O)CC[C@]4(C)[C@H]3CC[C@]12C [Xol3S, Cholesterol 3-Sulfate, reference compound]
- effect on enzymatic activities (DNMTs) (DNMT1/3a/3b): did not significantly affect enzymatic activities

Molecule: CC(C)CCC[C@@H](C)[C@H]1CC[C@H]2[C@@H]3CC=C4C[C@@H](O)CC[C@]4(C)[C@H]3CC[C@]12C [Xol, Cholesterol]
- effect on enzymatic activities (DNMTs) (DNMT1/3a/3b): did not significantly affect enzymatic activities

Molecule: C[C@H](CCCC(C)(C)O)[C@H]1CC[C@H]2[C@@H]3CC=C4[14CH2][C@@H](OS(=O)(=O)O)CC[C@]4(C)[C@H]3CC[C@]12C [[4-^14C]-25HC3S]
- plasma or whole blood concentrations versus Sprague Dawley rats [3]: no substantial difference in plasma or whole blood concentrations
- terminal elimination phase T½ [4]: 26.6 h
- recovered radioactivity in feces [5]: 83.0%
- AUClast in the liver [6]: ≤ 364,000 h.ng/g
- plasma:whole blood AUClast ratio [6]: 0.79
- tissue distribution of radioactivity [6]: broadly distributed and detected by quantitative whole body autoradiography in all tissues except the eye (lens)
- tissue:plasma ratio, liver ([6]; calculated using AUClast): 11.4
- tissue:plasma ratio, small intestine (wall) ([6]; calculated using AUClast): 7.44
- plasma AUClast [7]: 96,400 h•ng equiv./g
- Uveal tract and brain concentrations [8]: approximately 1000 ng equiv./g
- plasma:whole blood AUClast ratio [8]: 1.12
- tissue Tmax [8]: ≤ 6 hours postdose
- tissue distribution of radioactivity [8]: broadly distributed and detected by quantitative whole body autoradiography in all tissues except the eye (lens)
- whole blood AUClast [8]: 127,000 h•ng equiv./g
- tissue:plasma ratio, adrenal gland ([8]; calculated using AUClast): 6.64
- tissue:plasma ratio, liver ([8]; calculated using AUClast): 6.96
- tissue:plasma ratio, small intestine (wall) ([8]; calculated using AUClast): 15.4

Molecule: desmosterol sulfate
- detection in plasma, urine, or feces samples [1]: Neither desmosterol sulfate nor 25-hydroxycholesterol was detected
